{
  "source": "paper PMC8954944",
  "about": "(Molecules, 2022)",
  "key": {"[1]": {"system": "c-myc G-quadruplex DNA FRET probe (FAM/TAMRA) (DNA, G4) TGGGGAGGGTGGGGAGGGTGGGGAAGG", "assay": "FRET melting", "conditions": "100 mM KCl, 10 mM Na3AsO4; 10 mM Tris-HCl pH 7.4; 0.2 μM DNA; complex 0.15 or 0.30 μM, not given"}, "[2]": {"system": "c-myc G-quadruplex DNA (DNA, G4) TGGGGAGGGTGGGGAGGGTGGGGAAGG", "assay": "UV-vis titration", "conditions": "100 mM KCl"}, "[3]": {"system": "c-myc G-quadruplex DNA (DNA, G4) TGGGGAGGGTGGGGAGGGTGGGGAAGG", "assay": "fluorescent intercalator displacement", "conditions": "100 mM KCl, thiazole orange 1 μM displaced, DNA 0.5 μM"}, "c-myc G-quadruplex DNA": {"system": "c-myc G-quadruplex DNA", "assay": "UV–vis absorption titration with c-myc G-quadruplex DNA", "format": "binding", "conditions": "10 mM Tris-HCl buffer (pH 7.4), 100 mM KCl, [DNA]=100 μM", "procedure": "Electron spectroscopy is one of the most widely used techniques to evaluate the binding ability between metal complexes and DNA. UV–vis spectra titration experiments were conducted to further clarify the binding behavior of these complexes with c-myc G-quadruplex DNA.\nThe intramolecular c-myc G-quadruplex DNA structure was prepared by incubating Pu22 in a 10 mM Tris-HCl buffer (pH 7.4) containing 100 mM KCl, which was heated to 95 °C for 5 min, cooled to room temperature overnight, and stored at 4 °C for 24 h. The binding parameters of the arene Ru(II) complexes and c-myc G-quadruplex DNA were measured at room temperature using the UV–vis absorption spectra (Shimadzu UV-2550 spectrophotometer). […] The intrinsic binding constant (Kb) was calculated using the following:[DNA]/(εa − εf) = [DNA]/(εb − εf) + 1/[Kb(εb − εf)](2)\nIn the formula, εa, εf, and εb are the apparent coefficients, and the free and fully bound forms of the metal complex extinction coefficients, respectively. […] Kb is the ratio of the slope to the intercept."}, "[4]": {"system": "human breast cancer MCF-7 cells", "assay": "MTT assay, MCF-7", "format": "cell-based", "conditions": "72 h, 570 nm"}, "[5]": {"system": "human lung cancer A549 cells", "assay": "MTT assay, A549", "format": "cell-based", "conditions": "72 h, 570 nm"}, "[6]": {"system": "human liver carcinoma HepG2 cells", "assay": "MTT assay, HepG2", "format": "cell-based", "conditions": "72 h, 570 nm"}, "[7]": {"system": "human glioblastoma U87 cells", "assay": "MTT assay, U87", "format": "cell-based", "conditions": "72 h, 570 nm"}, "[8]": {"system": "human keratinocyte Hacat cells", "assay": "Cytotoxic activity against Hacat cells", "format": "cell-based", "conditions": "72 h incubation", "procedure": "The cytotoxic activity of the ligands and arene Ru(II)-modified compounds […] 1 . The cytotoxic activities of complexes against human keratinocyte […] 72 h incubation. Comp. L1 L2 3 6 […] 7. Multiple gene expression in glioblastoma multiforme Figure S20. Multiple gene expression in glioblastoma multiforme(Copyright © 2017 […], Boxi Kang. Zhang's Lab.). The darker the color, the higher the gene expression in glioblastoma multiforme. As shown in the heat map, c-myc gene is highly expressed in glioblastoma multiforme (GBM) compared with other G-quadruplex DNA (Tel, Bcl-2, c-kit, k-ras). 8. […]"}, "human normal liver cells": {"system": "human normal liver cells", "assay": "Toxicity to human normal liver cells", "conditions": "read-out: IC50 human normal liver cells"}, "[9]": {"conditions": "10 mM Tris-HCl pH 7.4, room temperature, 20 μM complex"}, "[10]": {"conditions": "10 mM Tris-HCl pH 7.4, room temperature"}},
  "data": [
    {"smiles": "Cc1ccc(C(C)C)cc1.Fc1ccc(-c2nc3c4cccnc4c4ncccc4c3[nH]2)c(F)c1.[Cl-].[Ru+2]", "values": [
      {"measurement": "ΔTm", "setting": "[1]", "result": 0.4, "unit": "°C"},
      {"measurement": "Kb", "setting": "[2]; [9]", "result": "~ 14.6 × 10^6 M^-1"},
      {"measurement": "DC50", "setting": "[3]; [10]", "result": 15.6, "unit": "µM"}
    ]},
    {"smiles": "Cc1ccc(C(C)C)cc1.Fc1cccc(-c2nc3c4cccnc4c4ncccc4c3[nH]2)c1F.[Cl-].[Ru+2]", "values": [
      {"measurement": "ΔTm", "setting": "[1]", "result": 5.07, "unit": "°C"},
      {"measurement": "Kb", "setting": "[2]; [9]", "result": "~ 134 × 10^6 M^-1"},
      {"measurement": "DC50", "setting": "[3]; [10]", "result": 10.26, "unit": "µM"}
    ]},
    {"smiles": "Fc1ccc(-c2nc3c4cccnc4c4ncccc4c3[nH]2)c(F)c1", "values": [
      {"measurement": "binding", "setting": "[2]; 10 mM Tris-HCl pH 7.4, DNA 100 μM, no significant absorption change", "result": "weak"}
    ]},
    {"smiles": "Fc1ccc(-c2nc3c4cccnc4c4ncccc4c3[nH]2)c(F)c1", "note": "[L2, 2-(2,4-Di-fluorophenyl) Imidazole[4,5f][1,10]-Phenanthroline]", "values": [
      {"measurement": "UV absorption peak of the ligand after the addition of DNA", "setting": "c-myc G-quadruplex DNA", "result": "did not change significantly"},
      {"measurement": "IC50", "setting": "[4]", "result": "1.48 ± 0.09", "unit": "µM"},
      {"measurement": "IC50", "setting": "[5]", "result": "3.42 ± 0.13", "unit": "µM"},
      {"measurement": "IC50", "setting": "[6]", "result": "0.12 ± 0.01", "unit": "µM"},
      {"measurement": "IC50", "setting": "[7]", "result": "5.87 ± 0.27", "unit": "µM"},
      {"measurement": "IC50", "setting": "[8]", "result": "2.72 ± 0.06", "unit": "µM"},
      {"measurement": "IC50", "setting": "human normal liver cells", "result": 0.18, "unit": "µM"}
    ]},
    {"smiles": "N.N.[Cl][Pt][Cl]", "note": "[Cisplatin, reference compound]", "values": [
      {"measurement": "IC50", "setting": "[4]", "result": "15.3 ± 0.18", "unit": "µM"},
      {"measurement": "IC50", "setting": "[5]", "result": "17.3 ± 0.26", "unit": "µM"},
      {"measurement": "IC50", "setting": "[6]", "result": "9.9 ± 0.06", "unit": "µM"},
      {"measurement": "IC50", "setting": "[7]", "result": "32.6 ± 0.85", "unit": "µM"}
    ]},
    {"smiles": "Fc1cccc(-c2nc3c4cccnc4c4ncccc4c3[nH]2)c1F", "note": "[L1, 2-(2,3-Di-fluorophenyl) Imidazole [4,5f][1,10]-Phenanthroline]", "values": [
      {"measurement": "IC50", "setting": "[4]", "result": "4.25 ± 0.18", "unit": "µM"},
      {"measurement": "IC50", "setting": "[5]", "result": "7.99 ± 0.05", "unit": "µM"},
      {"measurement": "IC50", "setting": "[6]", "result": "0.29 ± 0.01", "unit": "µM"},
      {"measurement": "IC50", "setting": "[7]", "result": "14.3 ± 0.47", "unit": "µM"},
      {"measurement": "IC50", "setting": "[8]", "result": "1.85 ± 0.03", "unit": "µM"},
      {"measurement": "IC50", "setting": "human normal liver cells", "result": 0.34, "unit": "µM"}
    ]},
    {"smiles": "Cc1ccccc1.Fc1ccc(-c2nc3c4cccnc4c4ncccc4c3[nH]2)c(F)c1.[Cl-].[Ru+2]", "values": [
      {"measurement": "ΔTm", "setting": "[1]", "result": 6.03, "unit": "°C"},
      {"measurement": "Kb", "setting": "[2]", "result": "~ 41.1 × 10^6 M^-1"},
      {"measurement": "DC50", "setting": "[3]; [10]", "result": 10.8, "unit": "µM"}
    ]},
    {"smiles": "Cc1ccccc1.Fc1cccc(-c2nc3c4cccnc4c4ncccc4c3[nH]2)c1F.[Cl-].[Ru+2]", "values": [
      {"measurement": "ΔTm", "setting": "[1]", "result": 15.05, "unit": "°C"},
      {"measurement": "Kb", "setting": "[2]", "result": "~ 110 × 10^6 M^-1"},
      {"measurement": "DC50", "setting": "[3]; [10]", "result": 9.93, "unit": "µM"}
    ]},
    {"smiles": "Fc1ccc(-c2nc3c4cccnc4c4ncccc4c3[nH]2)c(F)c1.[Cl-].[Ru+2].c1ccccc1", "values": [
      {"measurement": "ΔTm", "setting": "[1]", "result": 7.23, "unit": "°C"},
      {"measurement": "Kb", "setting": "[2]; [9]", "result": "~ 48.3 × 10^6 M^-1"},
      {"measurement": "DC50", "setting": "[3]; 10 mM Tris-HCl pH 7.4, text b19 prints 7.8", "result": 7.6, "unit": "µM"}
    ]},
    {"smiles": "Fc1cccc(-c2nc3c4cccnc4c4ncccc4c3[nH]2)c1F.[Cl-].[Ru+2].c1ccccc1", "values": [
      {"measurement": "ΔTm", "setting": "[1]", "result": 13.09, "unit": "°C"},
      {"measurement": "Kb", "setting": "[2]; [9]", "result": "~ 67.5 × 10^6 M^-1"},
      {"measurement": "DC50", "setting": "[3]; [10]", "result": 6.6, "unit": "µM"}
    ]}
  ]
}
